In patent US6365550B1, “Flufenacet-based herbicidal compositions” (Bayer Aktiengesellschaft, priority 1999, dated 2002):

Tests used:
Assay in all cases: Post-emergence test/greenhouse
Assay type in all cases: in vivo
Conditions in all cases: scored after three weeks vs untreated control
Chenopodium album = test system: Chenopodium album
Protocol: (§1) Commercial formulations of the active compounds involved were used. The active compound concentrations required for the experiments were prepared by dilution with water.
(§2) Test plants which have a height of 5 to 15 cm are sprayed with the active compound preparation in such a way that the amounts of active compound desired in each case are applied per unit area. The concentration of the spray mixture is chosen in such a way that the amounts of active compound desired in each case are applied in 500 l water/ha.
(§3) After three weeks, the degree of damage to the plants is scored in % damage in comparison with the development of the untreated control.
(§4) The figures denote the following:
(§5) 0%=no action (like untreated control)

Alopercurus myosuroides = test system: Alopercurus myosuroides
Protocol: as §1, §2, §3, §4, §5

Apera spica-venti = test system: Apera spica-venti
Protocol: as §1, §2, §3, §4, §5

Echinochloa crus-galli = test system: Echinochloa crus-galli
Protocol: as §1, §2, §3, §4, §5

| SMILES | % damage Chenopodium album (Chenopodium album; application rate 30 g a.i./ha) | % damage Alopercurus myosuroides (Alopercurus myosuroides; application rate 30 g a.i./ha) | % damage Apera spica-venti (Apera spica-venti; application rate 30 g a.i./ha) | % damage Echinochloa crus-galli (Echinochloa crus-galli; application rate 30 g a.i./ha) | % damage Chenopodium album (Chenopodium album; application rate 60 g a.i./ha) | % damage Alopercurus myosuroides (Alopercurus myosuroides; application rate 60 g a.i./ha) | % damage Apera spica-venti (Apera spica-venti; application rate 60 g a.i./ha) | % damage Echinochloa crus-galli (Echinochloa crus-galli; application rate 60 g a.i./ha) |
| --- | --- | --- | --- | --- | --- | --- | --- | --- |
| CC(C)N.O=C(O)CNCP(=O)(O)O [(II-1), N-phosphonomethyl-glycine i-propyl-ammonium salt] | 0% | 0% | 0% | 0% | – | – | – | – |
| CC(C)N(C(=O)COc1nnc(C(F)(F)F)s1)c1ccc(F)cc1 [(I), N-(4fluoro-phenyl)-N-(i-propyl)-2-(5-trifluoromethyl-1,3,4-thiadiazol-2-yl-oxy)-acetamide] | – | – | – | – | 0% | 60% | 60% | 60% |
